Experimental findings from PubChem BioAssay (NCI) are described below.

Some test systems named below: BT-549 breast; HOP-18 NSCLC; HS 578T breast; P388 leukemia; P388/ADR leukemia; SN12K1 renal; XF 498 CNS; RXF-631 renal; MDA-N.
Assay in all cases: NCI tumour cell line growth inhibition, 48 h

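Following 48 hours of exposure in 96-well plates, responses at five concentrations were used to interpolate endpoints linearly. GI50 marks 50% less growth. The concentration for full growth arrest is given as TGI.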

With `CCCCCCCCCCCC1CCCC(C)N1` (configuration not stated), the GI50 in the test on BT-549 breast was 7.39 µM; in the test with HS 578T breast, 8.6 µM. The TGI in the test with BT-549 breast was 22.6 µM; in the test with HOP-18 NSCLC it was 169 µM; with HS 578T breast, 26.2 µM; in the test with P388 leukemia, 23.9 µM; in the test with P388/ADR leukemia it was 54.7 µM; in the test on SN12K1 renal, 86.4 µM. In the test on XF 498 CNS, the TGI is 95.3 µM.

In the case of `C1=CC=C2NCCCNC3=CC=CC=CC3=NCCCN=C2C=C1`, the TGI in the test on RXF-631 renal and in the test with XF 498 CNS was above 100 µM throughout.

With `O=CC[C@H]1CCc2ccccc2C12CCC(=O)CC2`, the TGI in the test on RXF-631 renal and in the test on XF 498 CNS was above 100 µM throughout.

As for `CCc1cccc(C(C)C)c1NC(=O)C(=O)C(CC(=O)Nc1ccc(Cl)c(Cl)c1)C(=O)OC` (configuration not stated), the TGI in the test with HOP-18 NSCLC, in the test on RXF-631 renal and in the test with XF 498 CNS was above 100 µM each time.

Take `Cc1cc(C)nc(NS(=O)(=O)c2ccc(Nc3c4ccc(Cl)cc4nc4c(C(=O)Nc5ccc(S(N)(=O)=O)cc5)cccc34)cc2)n1`: the figures for the TGI in the test with RXF-631 renal and in the test on XF 498 CNS were 44.2 µM and 45.6 µM, respectively.

`CN(C)CCNC(=O)c1cccc2c1nc(-c1ccccc1)c1ccccc12`: the TGI worked out at 27.9 µM in the test with HOP-18 NSCLC and 3.06 µM with RXF-631 renal.

In the case of `CC1C[C@@H]2C(=O)NC(=O)[C@@H]2c2c1c1ccccc1n2C` (some centres not stated), the TGI in the test with RXF-631 renal and in the test with XF 498 CNS was above 100 µM in each case.

`C=C(Br)N(CC)CC`: the TGI with HOP-18 NSCLC and with RXF-631 renal was above 100 µM throughout.

As to `Cc1ccc(S(=O)(=O)OCC23CCC(CC2)C2CC23)cc1` (configuration not stated), the TGI in the test on HOP-18 NSCLC and in the test on RXF-631 renal was above 100 µM in each case.

On to `CCCCCCCCCCCCCP(=O)(O)OCC`, for which the TGI in the test on HOP-18 NSCLC and with RXF-631 renal was above 100 µM throughout.

On to `COC(=O)CCC(=O)CC(=O)C(=O)Nc1c(Cl)cc([N+](=O)[O-])cc1Cl`, for which the TGI with HOP-18 NSCLC, in the test on RXF-631 renal and with XF 498 CNS was above 100 µM throughout.

With `CCOC(=O)C1=C(C)N(c2ccc(C)cc2)C2=C(C(=O)N(c3ccccc3)C2c2ccccc2)C1c1ccccc1` (configuration not stated), the TGI with RXF-631 renal and in the test with XF 498 CNS was above 25 µM throughout.

With `COCCCNC(=O)CC(=O)NCCCOC`, the TGI in the test on HOP-18 NSCLC and with RXF-631 renal was above 100 µM in each case.

For `O=C(NP(=O)(N1CC1)N1CC1)c1cc(I)ccc1I`, the TGI with BT-549 breast, in the test with HOP-18 NSCLC, in the test on HS 578T breast, with MDA-N and in the test on XF 498 CNS was above 100 µM each time.

For the molecule `COc1cc2c3c(c1OC)-c1c(ccc4c1OCO4)CC3(C#N)N(C(=O)c1ccccc1)CC2` (configuration not stated), the TGI in the test on RXF-631 renal was above 100 µM; in the test with XF 498 CNS it was 60.2 µM.

Turning to `O=C(CC1(O)C(=O)Nc2c(Cl)cc(Cl)cc21)c1cccc2ccccc12` (configuration not stated), the TGI in the test on HOP-18 NSCLC was determined as 32.2 µM; in the test on RXF-631 renal, 43.3 µM; in the test with XF 498 CNS, 34.8 µM.

For `C[C@]1(CO)CCC[C@@]2(C)C1CC[C@H]1CC3C[C@]12CC[C@]3(C)O` (some centres not stated), the TGI in the test on RXF-631 renal and with XF 498 CNS was above 100 µM each time.

As to `NCCCNCCCCN(CCCN)/[N+]([O-])=N\O`, the TGI in the test with HOP-18 NSCLC and in the test on RXF-631 renal was above 100 µM throughout.

As to `O=C(Cc1nc2ccccc2s1)Nc1cccc(C(F)(F)F)c1`, the results for the TGI in the test with HOP-18 NSCLC, in the test with RXF-631 renal and with XF 498 CNS were 33.5 µM, 26.8 µM and 28.4 µM, respectively.
